Source: patent US20060030537A1, “Ceramide kinase and uses thereof” (priority 2004, published 2006)

Columns and labels:
A549 cells [1] = assay: Quantification of arachidonic acid (AA) release in A549 cells; assay type: cell-based; details: for AA release (lipid specificity): 1 μM lipid, 2 hours
Protocol: (§1) Cell Culture: A549 lung adenocarcinoma cells (epithelial-derived) were grown in low glucose DMEM (Invitrogen) supplemented with L-glutamine, 10% (v/v) fetal bovine serum (Invitrogen), 200 U/ml of penicillin G sodium, and 200 μg/ml of streptomycin sulfate. Cells were maintained under 80% confluency and standard incubator conditions (humidified atmosphere, 95% air, 5% CO2, 370 C). For treatment, cells were incubated for 2 hours in low glucose DMEM (Invitrogen) supplemented with L-glutamine, 2% (v/v) fetal bovine serum (Invitrogen), 200 U/ml of penicillin G sodium, and 200 μg/ml of streptomycin sulfate prior to the addition of agonist.
(§2) Quantification of arachidonic acid (AA) release: A549 cells (5×10^4) were labeled overnight with 5 μCi/mL [^3H]-AA (5 nM) (NEN). Cells were washed and incubated in DMEM supplemented with 2% fetal bovine serum for 2 hours. Following treatment, media was transferred to 1.5 mL polypropylene tubes, centrifuged at 10,000×g, and ^3H-AA cpm determined by scintillation counting. Results were controlled for equivalent number of cells quantified by MTT assay as described (Chalfant, C. E., Rathman, K., Pinkerman, R. L., Wood, R. E., Obeid, L. M., Ogretmen, B., and Hannun, Y. A. (2002) J. Biol. Chem. 277, 12587-12595) and by verification of total AA labeling by scintillation counting. For the experiments in FIG. 4, purified SMase D was obtained from Dr. Alfred H. Merrill, Jr., and SMase C (purified from Bacillus cereus) was obtained commercially from Sigma.
RNAi design and transfections: Knock-downs of ceramide kinase were performed essentially as described using sequence specific siRNA reagents (http:www.mpibpc.gwdg.de/abteilungen/100/105/sirna.html) (Lassus, P., Opitz-Araya, X., and Lazebnik, Y. (2002) Science 297, 1352-1354) using human ceramide kinase RNAi starting 142 nucleotides from start codon ([…]dTd (SEQ ID NO: 3) and […]dTd (SEQ ID NO:4)). All sequences were evaluated against the database using the NIH blast program to test for specificity (Xeragon, A Qiagen Company). A549 cells (3×10^4) were transfected with the 21-nucleotide duplexes using OligofectAMINE (Invitrogen) as recommended by the manufacturer. Following the 4 hour transfection, cells were treated and assayed for AA release or PGE2 synthesis at 26 hours post-transfection.

ceramide kinase = assay: Ceramide kinase assay on lysates of treated or transfected A549 cells; assay type: cell-based, human
Protocol: (§3) FIGS. 5A-5C. IL-1β and calcium ionophore increase ceramide-1-phosphate production and ceramide kinase activity. FIGS. 5A and 5B. The effect of IL-1 and A23187 on C-1-P levels and AA liberation. A549 cells (2×10^5) were labeled overnight with 10 μCi/mL [^3H]-arachidonic acid (10 nM), washed, and then treated with either 2.5 ng/mL of IL-1β (FIG. 5A) or 1 μg/mL of A23187 (FIG. 5B) for the indicated times. Two hours prior to Bligh-Dyer extraction, cells were chased with 20 μM of D-e-C6 NBD-ceramide (Matreya). At the appropriate times, media was taken for AA analysis, and lipids from the cells were extracted by the Bligh-Dyer method followed by analysis of NBD-C-1-P formation. Data are presented as % control of C-1-P levels (J) and AA release (B). Data are representative of three separate determinations on 2 separate occasions. FIG. 5C. IL-1β and calcium ionophore increase ceramide kinase activity. A549 cells (5×10^5) were treated with either 2.5 ng/mL of IL-1β for 3.5 hours or 1 μg/mL of A23187 for 5 minutes. Cells were then washed, lysed in assay buffer, and assayed for ceramide kinase activity. Data is presented as % control of ceramide kinase activity (Arbitrary densitometry units of fluorescent NBD-C-1-P produced/min/mg of total cellular protein). Data are representative of three separate determinations on 2 separate occasions.
FIGS. 6A-6B. Ceramide kinase RNAi downregulates endogenous ceramide kinase activity and mRNA levels. FIG. 6A. The effect of ceramide kinase RNAi on endogenous ceramide kinase activity. […] Following the same procedure as outlined in FIG. 6A, total RNA was extracted and analyzed via logarithmic reverse-transcriptase polymerase chain reaction for human ceramide kinase and 18s ribosomal RNA. […]
Ceramide Kinase Assay: Ceramide kinase activity was measured as described previously with slight modifications (Bajjalieh, S., and Batchelor, R. (2001) Methods Enzymol. 311, 207-215). […] Following Bligh-Dyer extraction, lipids were separated by thin layer chromatography, and NBD-C-1-P was visualized/quantified by fluorescent phosphorimaging.

C-1-P levels = assay: Ceramide-1-phosphate levels by pulse-labeling with D-e-C6 NBD-ceramide in A549 cells; assay type: cell-based
Protocol: as §3
Quantification of ceramide-1-phosphate levels by pulse-labeling with D-e-C6 NBD-ceramide: Two hours prior to Bligh-Dyer extraction, cells were chased with 20 μM of D-e-C6 NBD-ceramide (Matreya). At the appropriate times, lipids were extracted by the Bligh-Dyer method, analyzed for NBD-C-1-P formation using TLC analysis, and results normalized to total lipid phosphate as described (Perry, D. K., Bielawska, A., and Hannun, Y. A. (2000) Methods Enzymol. 312, 22-31).

protein phosphatase 2A = assay: Inhibition of protein phosphatase 2A; assay type: biochemical
A549 cells [2] = assay: Quantification of thromboxane B2 synthesis in A549 cells (EIA); assay type: cell-based; details: 1 μM
Protocol: (§4) FIGS. 3A-3B. FIG. 3A. The effects of ceramide-1-phosphate on TXB2 synthesis. A549 cells (1×10^5) were treated with D-e-C16 ceramide-1-phosphate (1 μM) solubilized in 2% dodecane/98% ethanol (final concentration in treatments was 0.002% dodecane/0.098% ethanol (EtOH)) for the indicated times. The results are presented as % control of TXB2 controlled for equivalent number of cells by MTT assay. Data are representative of 3 separate determinations on 2 separate occasions. FIG. 3B. The effects of ceramide-1-phosphate on AA release and PGE2 synthesis in L929 fibroblasts. L929 cells (5×10^4) were labeled overnight with 5 μCi/mL [^3H]-arachidonic acid (5 nM). Cells were washed and placed in DMEM supplemented with 2% fetal bovine serum for two hours. Cells were then treated with 2.5 μM D-e-C16 ceramide-1-phosphate (solubilized in 98% ethanol/2% dodecane) for the indicated times. […]
(§5) Quantification of prostaglandin E2 and thromboxane B2 synthesis: For measurement of PGE2 and TXB2 levels, aliquots of media were taken at indicated time points and assayed according to manufacturer's instructions using the prostaglandin E2 and thromboxane B2 monoclonal EIA Kit from Cayman Chemical. […] Results were controlled for equivalent number of cells quantified by MTT assay.

L929 fibroblasts [3] = assay: PGE2 synthesis in L929 fibroblasts; assay type: cell-based; details: L929 fibroblasts that do not express COX-2
Protocol: as §4, §5

protein phosphatase-1 = assay: Inhibition of protein phosphatase-1; assay type: biochemical
A549 cells [4] = assay: Quantification of prostaglandin E2 synthesis in A549 cells (EIA); assay type: cell-based; details: 2.5 μM, only after 1 hour
Protocol: as §1
Quantification of prostaglandin E2 and thromboxane B2 synthesis: For measurement of PGE2 and TXB2 levels, aliquots of media were taken at indicated time points and assayed according to manufacturer's instructions using the prostaglandin E2 and thromboxane B2 monoclonal EIA Kit from Cayman Chemical. Briefly, media containing PGE2 or TXB2 competes with PGE2 or TXB2 acetylcholinesterase conjugate for a limited amount of monoclonal antibody. The antibody-PGE2 or -TXB2 conjugate binds to a goat-anti-mouse antibody previously attached to the 96-well plate. The plate is washed to remove unbound reagents and then the substrate for acetylcholinesterase is provided. […] Results were controlled for equivalent number of cells quantified by MTT assay. […]

L929 fibroblasts [5] = assay: AA release in L929 fibroblasts; assay type: cell-based; details: 1 μM, after 1 hour
Protocol: as §4, with “hours.” for “hours. Cells were then treated with 2.5 μM D-e-C16 ceramide-1-phosphate (solubilized in 98% ethanol/2% dodecane) for the indicated times.”
as §2, with “Cells were washed and incubated in DMEM supplemented with 2% fetal bovine serum for 2 hours.” left out, “For the experiments in FIG. 4, purified SMase D was obtained from Dr. Alfred H. Merrill, Jr., and SMase C (purified from Bacillus cereus) was obtained commercially from Sigma.” left out

COX-2 = COX-2 expression by western immunoblotting; assay type: cell-based

`CCCCCCCCCCCCC/C=C/[C@@H](O)[C@H](CO)NC(=O)CCCCCCCCCCCCCCC` [CER, D-erythro C16 ceramide] was tested, and the “AA release (lipid specificity)” value (A549 cells [1]) was “small increase” and the “AA release, long term treatment” value (A549 cells [1]; 8 hours) was “no further increase”.

For IL-1β, the “increase of ceramide kinase activity” value (ceramide kinase; 2.5 ng/mL, 3.5 hours) was 187% and the “increase in C-1-P levels” value (C-1-P levels; 2.5 ng/mL, after 4 hours) was 242%.

With `CNc1ccc2oc(C[C@H]3O[C@@]4(CC[C@H]3C)O[C@H]([C@H](C)C(=O)c3ccc[nH]3)[C@H](C)C[C@H]4C)nc2c1C(=O)O` [A23187] the “time to increased AA release” value (A549 cells [1]; 1 μg/mL) was “within minutes”, the “increase of ceramide kinase activity” value (ceramide kinase; 1 μg/mL, 5 minutes) was 216% and the “maximal increase in C-1-P levels” value (C-1-P levels; 1 μg/mL, after 10 minutes) was “approximately 4 fold”. For the same compound, the C-1-P levels (C-1-P levels; 1 μg/mL, within 5 minutes of treatment) was “significant increase”.

In the case of `CCCCCCCCCCCCC/C=C/[C@@H](O)[C@H](COP(=O)(O)O)NC(=O)CCCCCCCCCCCCCCC` [C-1-P, D-erythro-C16 ceramide-1-phosphate], the “concentration as low as which induces a significant increase in AA release” value (A549 cells [1]) is reported as 100 nM, the “AA release (lipid specificity)” value (A549 cells [1]) is reported as “induced significant AA release” and the “maximal early increase in AA release” value (A549 cells [1]; 2.5 μM, after 20 minutes) is reported as “approximately 2 fold”. The AA release (A549 cells [1]; 2.5 μM, after 1 hour, following reuptake) was “sustained increase”, the EC50 (A549 cells [1]; 8 hours, read-out: EC50 of effect on AA release) was 400 nM and the IC50 (protein phosphatase 2A) was 50 nM. The “increase of TXB2” value (A549 cells [2]; after 2 hours) was 2.5 fold, the “increase of TXB2” value (A549 cells [2]; after 4 hours) was 11 fold and the PGE2 synthesis/release (L929 fibroblasts [3]) was “not observed”. The IC50 (protein phosphatase-1) was 50 nM, the PGE2 synthesis (A549 cells [4]) was “Increased” and the “AA release over basal release” value (L929 fibroblasts [5]) was 225%. For the same compound, the “expression of COX-2” value (COX-2) was “no effect”.

`CCCCCCCCCCCCC/C=C/[C@@H](O)[C@@H](N)COP(=O)(O)O` [S-1-P, D-erytho-sphingosine-1-phosphate] was tested, and the “AA release (lipid specificity)” value (A549 cells [1]) was “Only C-1-P induced significant AA release”.

For di-oleoylglycerol [DAG], the “AA release (lipid specificity)” value (A549 cells [1]) was “Only C-1-P induced significant AA release”.

In the case of `CCCCCCCC/C=C\CCCCCCCC(=O)OC[C@H](COP(=O)(O)O)OC(=O)CCCCCCC/C=C\CCCCCCCC` [PA, di-oleoyl phosphatidic acid], the “AA release (lipid specificity)” value (A549 cells [1]) is reported as “Only C-1-P induced significant AA release”.
